Measured values from patent US20090143279A1 (priority 2007, published 2009).
Where two headings read alike, the source gives them in different places.

Legend:
[1] = test system: cellular dehydrogenase activity; details: for MTT (composite Z-score): normalized score vs mock-treated (DMSO) wells
C2C12 myotubes = details: for Viability (composite Z-score): normalized score vs mock-treated (DMSO) wells
mtOXPHOS transcripts = assay type: cell-based, mouse; details: for mitoOX (composite Z-score): normalized score vs mock-treated (DMSO) wells
reactive oxygen species = assay type: cell-based, mouse; details: for ROS (composite Z-score): normalized score vs mock-treated (DMSO) wells
cytochrome c = assay type: cell-based, mouse; details: for cyt c (composite Z-score): normalized score vs mock-treated (DMSO) wells
OXPHOS gene expression = assay type: cell-based, mouse; details: for GE-HTS (composite Z-score): normalized score vs mock-treated (DMSO) wells
[2] = test system: mitochondrial membrane potential; assay type: cell-based, mouse; details: for ΔΨm (composite Z-score): normalized score vs mock-treated (DMSO) wells
nuOXPHOS transcripts = assay type: cell-based, mouse; details: for nucOX (composite Z-score): normalized score vs mock-treated (DMSO) wells
[3] = composite Z-score vs mock-treated (DMSO) wells, Conc 20 μM
[4] = normalized composite Z-score vs mock-treated (DMSO) wells, Conc 20 μM
[5] = 20 μM, composite Z-score vs DMSO
[6] = composite Z-score vs DMSO wells, Conc 20 μM
[7] = composite Z-score vs DMSO, Conc 20 μM
[8] = composite Z-score vs mock-treated (DMSO) wells, concentration of each compound in μM

Sequence of cytochrome c (P62897 whole entry): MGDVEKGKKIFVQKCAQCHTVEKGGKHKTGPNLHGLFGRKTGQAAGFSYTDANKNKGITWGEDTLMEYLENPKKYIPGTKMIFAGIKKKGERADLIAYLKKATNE

CC(=O)c1c(O)c(C)c(O)c2c1oc1c(C(C)=O)c(O)c(C)c(O)c12 [diacetyldideisovaleryl-rhodomyrtoxin]
MTT [1, 3]: 0.875 | Viability (C2C12 myotubes; [3]): −0.779 | mitoOX (mtOXPHOS transcripts; [3]): −0.703 | ROS (reactive oxygen species; [3]): 0.967 | cyt c (cytochrome c; [3]): 0.057 | GE-HTS (OXPHOS gene expression; [3]): −0.776 | ΔΨm [2, 3]: 1.937 | nucOX (nuOXPHOS transcripts; [3]): −0.742

CC(C)c1c(O)ccc2c1CCC1[C@@](C)(C=O)CCC[C@]21C (some centres unmarked) [totaralolal]
MTT [1, 3]: 1.526 | Viability (C2C12 myotubes; [3]): 0.591 | mitoOX (mtOXPHOS transcripts; [3]): −1.230 | ROS (reactive oxygen species; [3]): 1.617 | cyt c (cytochrome c; [3]): −0.226 | GE-HTS (OXPHOS gene expression; [3]): −0.700 | ΔΨm [2, 3]: 0.460 | nucOX (nuOXPHOS transcripts; [3]): −0.401

COc1ccc(-c2oc3cc(O[C@@H]4O[C@H](CO)[C@@H](O)[C@H](O)[C@H]4O)c(OC)c(O)c3c(=O)c2OC)cc1O [centaurein]
MTT (composite Z-score) ([1]; Conc 20 μM): −1.640 | Viability (composite Z-score) (C2C12 myotubes; Conc 20 μM): −0.006 | mitoOX (composite Z-score) (mtOXPHOS transcripts; Conc 20 μM): 0.657 | ROS (composite Z-score) (reactive oxygen species; Conc 20 μM): −0.090 | cyt c (composite Z-score) (cytochrome c; Conc 20 μM): −0.039 | GE-HTS (composite Z-score) (OXPHOS gene expression; Conc 20 μM): 0.497 | ΔΨm (composite Z-score) ([2]; Conc 20 μM): −0.744 | nucOX (composite Z-score) (nuOXPHOS transcripts; Conc 20 μM): 0.388

C=C1CCC2C(CC2(C)C)C(=C)CCC1=NO (centres unmarked) [5-hydroxyiminoisocaryophyllene]
MTT [1, 3]: 1.325 | Viability (C2C12 myotubes; [3]): 0.181 | mitoOX (mtOXPHOS transcripts; [3]): 0.421 | ROS (reactive oxygen species; [3]): 0.922 | cyt c (cytochrome c; [3]): 0.117 | GE-HTS (OXPHOS gene expression; [3]): −0.023 | ΔΨm [2, 3]: 0.413 | nucOX (nuOXPHOS transcripts; [3]): −0.273

C=C1CC[C@H]2O[C@]2(C)CC[C@@H]2[C@@H]1CC2(C)C [carylophyllene oxide]
MTT [1, 4]: −0.713 | Viability (C2C12 myotubes; [4]): −0.547 | mitoOX (mtOXPHOS transcripts; [4]): −0.324 | ROS (reactive oxygen species; [4]): 0.636 | cyt c (cytochrome c; [4]): 0.321 | GE-HTS (OXPHOS gene expression; [4]): −0.087 | ΔΨm [2, 4]: −0.246 | nucOX (nuOXPHOS transcripts; [4]): 0.060

caryophyllene
MTT (composite Z-score) ([1]; Conc 20 μM): −0.525 | Viability (composite Z-score) (C2C12 myotubes; Conc 20 μM): −0.255 | mitoOX (composite Z-score) (mtOXPHOS transcripts; Conc 20 μM): −0.100 | ROS (composite Z-score) (reactive oxygen species; Conc 20 μM): 0.996 | cyt c (composite Z-score) (cytochrome c; Conc 20 μM): −0.121 | GE-HTS (composite Z-score) (OXPHOS gene expression; Conc 20 μM): 0.119 | ΔΨm (composite Z-score) ([2]; Conc 20 μM): 1.045 | nucOX (composite Z-score) (nuOXPHOS transcripts; Conc 20 μM): 0.216

NC(=O)c1ccc[n+]([C@@H]2O[C@H](COP(=O)([O-])OP(=O)(O)OC[C@H]3O[C@@H](n4cnc5c(N)ncnc54)[C@H](OP(=O)(O)O)[C@@H]3O)[C@@H](O)[C@H]2O)c1
MTT [1, 5]: −1.286 | Viability (C2C12 myotubes; [5]): −0.562 | mitoOX (mtOXPHOS transcripts; [5]): −0.615 | ROS (reactive oxygen species; [5]): −0.038 | cyt c (cytochrome c; [5]): 0.101 | GE-HTS (OXPHOS gene expression; [5]): −0.424 | ΔΨm [2, 5]: −0.582 | nucOX (nuOXPHOS transcripts; [5]): −0.307

Oc1c(Cl)cc(Cl)c(Cl)c1Cc1c(O)c(Cl)cc(Cl)c1Cl [hexachlorophene]
MTT [1, 6]: −1.203 | Viability (C2C12 myotubes; [6]): −3.480 | mitoOX (mtOXPHOS transcripts; [6]): −4.169 | ROS (reactive oxygen species; [6]): −3.378 | cyt c (cytochrome c; [6]): −2.828 | GE-HTS (OXPHOS gene expression; [6]): −2.471 | ΔΨm [2, 6]: −2.559 | nucOX (nuOXPHOS transcripts; [6]): −1.371

OC(CCN1CCCCC1)(c1ccccc1)C1CC2C=CC1C2 (centres unmarked) [biperiden]
MTT [1]: −0.886 | Viability (C2C12 myotubes): 0.740 | mitoOX (mtOXPHOS transcripts): −1.312 | ROS (reactive oxygen species): 2.725 | cyt c (cytochrome c): 0.053 | GE-HTS (OXPHOS gene expression): −0.817 | ΔΨm [2]: −0.517 | nucOX (nuOXPHOS transcripts): −0.496

COc1ccc2c(c1)C1(C)CCC(O)CC1CC2 (centres unmarked)
MTT [1, 7]: −2.017 | Viability (C2C12 myotubes; [7]): −1.078 | mitoOX (mtOXPHOS transcripts; [7]): −0.270 | ROS (reactive oxygen species; [7]): 0.559 | cyt c (cytochrome c; [7]): −0.087 | GE-HTS (OXPHOS gene expression; [7]): −0.375 | ΔΨm [2, 7]: −0.840 | nucOX (nuOXPHOS transcripts; [7]): −0.350

C=C(C)C1Cc2c(ccc(C(=O)O)c2O)O1 (centres unmarked) [tubaic acid]
MTT (composite Z-score) ([1]; Conc 20 μM): 0.150 | Viability (composite Z-score) (C2C12 myotubes; Conc 20 μM): −0.569 | mitoOX (composite Z-score) (mtOXPHOS transcripts; Conc 20 μM): 0.070 | ROS (composite Z-score) (reactive oxygen species; Conc 20 μM): 0.646 | cyt c (composite Z-score) (cytochrome c; Conc 20 μM): 0.089 | GE-HTS (composite Z-score) (OXPHOS gene expression; Conc 20 μM): −0.746 | ΔΨm (composite Z-score) ([2]; Conc 20 μM): −0.489 | nucOX (composite Z-score) (nuOXPHOS transcripts; Conc 20 μM): −1.065

C[C@]12CCC3C(CC[C@H]4C[C@H](O)CC[C@]34C)C1CC[C@@H]2O (some centres unmarked) [epiandrostanediol]
MTT [1, 7]: −0.207 | Viability (C2C12 myotubes; [7]): 1.143 | mitoOX (mtOXPHOS transcripts; [7]): 0.190 | ROS (reactive oxygen species; [7]): 0.113 | cyt c (cytochrome c; [7]): −0.201 | GE-HTS (OXPHOS gene expression; [7]): −0.069 | ΔΨm [2, 7]: −0.156 | nucOX (nuOXPHOS transcripts; [7]): −0.203

COC1=C(O)C(=O)c2c(cc3oc(C(C)=O)c(O)c3c2O)C1=O [rhodocladonic acid]
MTT [1, 7]: −1.057 | Viability (C2C12 myotubes; [7]): −0.416 | mitoOX (mtOXPHOS transcripts; [7]): 0.072 | ROS (reactive oxygen species; [7]): 0.733 | cyt c (cytochrome c; [7]): 1.150 | GE-HTS (OXPHOS gene expression; [7]): 0.294 | ΔΨm [2, 7]: 0.068 | nucOX (nuOXPHOS transcripts; [7]): 0.393

CCOC(=O)[C@H](CCc1ccccc1)N[C@@H](C)C(=O)N1Cc2ccccc2C[C@H]1C(=O)O [quinapril]
MTT [1, 5]: −1.111 | Viability (C2C12 myotubes; [5]): 0.034 | mitoOX (mtOXPHOS transcripts; [5]): −0.130 | ROS (reactive oxygen species; [5]): 1.175 | cyt c (cytochrome c; [5]): 0.237 | GE-HTS (OXPHOS gene expression; [5]): −0.132 | ΔΨm [2, 5]: −0.276 | nucOX (nuOXPHOS transcripts; [5]): −0.127

CC(=O)O[C@@H]1CC2C(C)(C)C(=O)C3OC3[C@]2(C)C2CC[C@@]3(C)[C@H](c4ccoc4)OC(=O)C4OC43[C@@]21C (some centres unmarked) [epoxygedunin]
MTT (composite Z-score) ([1]; Conc 20 μM): −1.657 | Viability (composite Z-score) (C2C12 myotubes; Conc 20 μM): 0.052 | mitoOX (composite Z-score) (mtOXPHOS transcripts; Conc 20 μM): −1.005 | ROS (composite Z-score) (reactive oxygen species; Conc 20 μM): 0.409 | cyt c (composite Z-score) (cytochrome c; Conc 20 μM): 0.248 | GE-HTS (composite Z-score) (OXPHOS gene expression; Conc 20 μM): −1.146 | ΔΨm (composite Z-score) ([2]; Conc 20 μM): 0.274 | nucOX (composite Z-score) (nuOXPHOS transcripts; Conc 20 μM): −1.130

COC(=O)C(C)c1ccc(C(=O)c2cccs2)cc1 (centres unmarked) [suprofen methyl ester]
MTT [1, 7]: −1.160 | Viability (C2C12 myotubes; [7]): 0.611 | mitoOX (mtOXPHOS transcripts; [7]): −0.048 | ROS (reactive oxygen species; [7]): 0.591 | cyt c (cytochrome c; [7]): −0.191 | GE-HTS (OXPHOS gene expression; [7]): 0.139 | ΔΨm [2, 7]: 0.577 | nucOX (nuOXPHOS transcripts; [7]): 0.216

CC1(C)C(=O)CC[C@@]2(C)C1C[C@@H](O)[C@@]1(C)C3=CC(=O)O[C@@H](c4ccoc4)[C@]3(C)CCC21 (some centres unmarked) [dihydro-7-desacetyldeoxygedunin]
MTT [1, 4]: −1.403 | Viability (C2C12 myotubes; [4]): −0.527 | mitoOX (mtOXPHOS transcripts; [4]): −1.218 | ROS (reactive oxygen species; [4]): 0.608 | cyt c (cytochrome c; [4]): 0.599 | GE-HTS (OXPHOS gene expression; [4]): −0.961 | ΔΨm [2, 4]: −0.170 | nucOX (nuOXPHOS transcripts; [4]): −0.719

CC1(C)C(=O)C=C[C@]2(C)[C@H]3CC[C@@]4(C)[C@H](c5ccoc5)OC(=O)[C@H]5O[C@]54[C@]3(C)C=C[C@@H]12 [7-desacetoxy-6,7-dehydrogedunin]
MTT [1, 4]: −1.891 | Viability (C2C12 myotubes; [4]): −0.973 | mitoOX (mtOXPHOS transcripts; [4]): −2.631 | ROS (reactive oxygen species; [4]): −3.492 | cyt c (cytochrome c; [4]): 0.198 | GE-HTS (OXPHOS gene expression; [4]): −1.430 | ΔΨm [2, 4]: −1.799 | nucOX (nuOXPHOS transcripts; [4]): −0.695

C/C1=C2/[N-][C@H]([C@H](CC(N)=O)[C@@]2(C)CCC(=O)NC[C@@H](C)OP(=O)([O-])O[C@H]2[C@@H](O)[C@@H](n3cnc4cc(C)c(C)cc43)O[C@@H]2CO)[C@]2(C)N=C(/C(C)=C3N=C(/C=C4N=C1[C@@H](CCC(N)=O)C\4(C)C)[C@@H](CCC(N)=O)[C@]\3(C)CC(N)=O)[C@@H](CCC(N)=O)[C@]2(C)CC(N)=O.[Co] [cobalamine]
MTT [1, 8]: −1.369 | Viability (C2C12 myotubes; [8]): −0.821 | mitoOX (mtOXPHOS transcripts; [8]): −0.393 | ROS (reactive oxygen species; [8]): 2.944 | cyt c (cytochrome c; [8]): −0.617 | GE-HTS (OXPHOS gene expression; [8]): −0.402 | ΔΨm [2, 8]: 0.097 | nucOX (nuOXPHOS transcripts; [8]): −0.373
